From ChEMBL document CHEMBL5625277, “Systematical mutational analysis of teriparatide on anti-osteoporosis activity by alanine scanning” (Bioorg Med Chem Lett, 2024)

Test: Cytotoxicity in pre-osteoblasts (unknown origin) assessed as cell death upto 5 uM by CCK8 assay
Assay type: toxicity, cell-based
Conditions: pre-osteoblast

Row | Structure (SMILES) | Activity
1 | CC[C@H](C)[C@H](NC(=O)[C@H](CCC(=O)O)NC(=O)[C@H](CO)NC(=O)[C@@H](NC(=O)[C@H](C)NC(C)=O)C(C)C)C(=O)N[C@@H](CCC(N)=O)C(=O)N[C@@H](CC(C)C)C(=O)N[C@@H](CCSC)C(=O)N[C@@H](Cc1cnc[nH]1)C(=O)N[C@@H](CC(N)=O)C(=O)N[C@@H](CC(C)C)C(=O)NCC(=O)N[C@@H](CCCCN)C(=O)N[C@@H](Cc1cnc[nH]1)C(=O)N[C@@H](CC(C)C)C(=O)N[C@@H](CC(N)=O)C(=O)N[C@@H](CO)C(=O)N[C@@H](CCSC)C(=O)N[C@@H](CCC(=O)O)C(=O)N[C@@H](CCCNC(=N)N)C(=O)N[C@H](C(=O)N[C@@H](CCC(=O)O)C(=O)N[C@@H](Cc1c[nH]c2ccccc12)C(=O)N[C@@H](CC(C)C)C(=O)N[C@@H](CCCNC(=N)N)C(=O)N[C@@H](CCCCN)C(=O)N[C@@H](CCCCN)C(=O)N[C@@H](CC(C)C)C(=O)N[C@@H](CCC(N)=O)C(=O)N[C@@H](CC(=O)O)C(=O)N[C@H](C(=O)N[C@@H](Cc1cnc[nH]1)C(=O)N[C@@H](CC(N)=O)C(=O)N[C@@H](Cc1ccccc1)C(N)=O)C(C)C)C(C)C | Non-Toxic
2 | CC[C@H](C)[C@H](NC(=O)[C@H](CCC(=O)O)NC(=O)[C@H](CO)NC(=O)[C@@H](NC(=O)[C@H](CO)NC(C)=O)C(C)C)C(=O)N[C@@H](CCC(N)=O)C(=O)N[C@@H](CC(C)C)C(=O)N[C@@H](CCSC)C(=O)N[C@@H](Cc1cnc[nH]1)C(=O)N[C@@H](CC(N)=O)C(=O)N[C@@H](CC(C)C)C(=O)NCC(=O)N[C@@H](CCCCN)C(=O)N[C@@H](Cc1cnc[nH]1)C(=O)N[C@@H](CC(C)C)C(=O)N[C@@H](CC(N)=O)C(=O)N[C@@H](CO)C(=O)N[C@@H](CCSC)C(=O)N[C@@H](CCC(=O)O)C(=O)N[C@@H](CCCNC(=N)N)C(=O)N[C@H](C(=O)N[C@@H](CCC(=O)O)C(=O)N[C@@H](Cc1c[nH]c2ccccc12)C(=O)N[C@@H](CC(C)C)C(=O)N[C@@H](CCCNC(=N)N)C(=O)N[C@@H](CCCCN)C(=O)N[C@@H](CCCCN)C(=O)N[C@@H](CC(C)C)C(=O)N[C@@H](CCC(N)=O)C(=O)N[C@@H](CC(=O)O)C(=O)N[C@H](C(=O)N[C@@H](Cc1cnc[nH]1)C(=O)N[C@@H](CC(N)=O)C(=O)N[C@@H](C)C(N)=O)C(C)C)C(C)C | Non-Toxic
3 | CC[C@H](C)[C@H](NC(=O)[C@H](CCC(=O)O)NC(=O)[C@H](CO)NC(=O)[C@@H](NC(=O)[C@H](CO)NC(C)=O)C(C)C)C(=O)N[C@@H](CCC(N)=O)C(=O)N[C@@H](CC(C)C)C(=O)N[C@@H](CCSC)C(=O)N[C@@H](Cc1cnc[nH]1)C(=O)N[C@@H](CC(N)=O)C(=O)N[C@@H](CC(C)C)C(=O)NCC(=O)N[C@@H](CCCCN)C(=O)N[C@@H](Cc1cnc[nH]1)C(=O)N[C@@H](CC(C)C)C(=O)N[C@@H](CC(N)=O)C(=O)N[C@@H](CO)C(=O)N[C@@H](CCSC)C(=O)N[C@@H](CCC(=O)O)C(=O)N[C@@H](CCCNC(=N)N)C(=O)N[C@H](C(=O)N[C@@H](C)C(=O)N[C@@H](Cc1c[nH]c2ccccc12)C(=O)N[C@@H](CC(C)C)C(=O)N[C@@H](CCCNC(=N)N)C(=O)N[C@@H](CCCCN)C(=O)N[C@@H](CCCCN)C(=O)N[C@@H](CC(C)C)C(=O)N[C@@H](CCC(N)=O)C(=O)N[C@@H](CC(=O)O)C(=O)N[C@H](C(=O)N[C@@H](Cc1cnc[nH]1)C(=O)N[C@@H](CC(N)=O)C(=O)N[C@@H](Cc1ccccc1)C(N)=O)C(C)C)C(C)C | Non-Toxic
4 | CC[C@H](C)[C@H](NC(=O)[C@H](CCC(=O)O)NC(=O)[C@H](CO)NC(=O)[C@@H](NC(=O)[C@H](CO)NC(C)=O)C(C)C)C(=O)N[C@@H](CCC(N)=O)C(=O)N[C@@H](CC(C)C)C(=O)N[C@@H](CCSC)C(=O)N[C@@H](Cc1cnc[nH]1)C(=O)N[C@@H](CC(N)=O)C(=O)N[C@@H](C)C(=O)NCC(=O)N[C@@H](CCCCN)C(=O)N[C@@H](Cc1cnc[nH]1)C(=O)N[C@@H](CC(C)C)C(=O)N[C@@H](CC(N)=O)C(=O)N[C@@H](CO)C(=O)N[C@@H](CCSC)C(=O)N[C@@H](CCC(=O)O)C(=O)N[C@@H](CCCNC(=N)N)C(=O)N[C@H](C(=O)N[C@@H](CCC(=O)O)C(=O)N[C@@H](Cc1c[nH]c2ccccc12)C(=O)N[C@@H](CC(C)C)C(=O)N[C@@H](CCCNC(=N)N)C(=O)N[C@@H](CCCCN)C(=O)N[C@@H](CCCCN)C(=O)N[C@@H](CC(C)C)C(=O)N[C@@H](CCC(N)=O)C(=O)N[C@@H](CC(=O)O)C(=O)N[C@H](C(=O)N[C@@H](Cc1cnc[nH]1)C(=O)N[C@@H](CC(N)=O)C(=O)N[C@@H](Cc1ccccc1)C(N)=O)C(C)C)C(C)C | Non-Toxic
5 | CC[C@H](C)[C@H](NC(=O)[C@H](CCC(=O)O)NC(=O)[C@H](CO)NC(=O)[C@@H](NC(=O)[C@H](CO)NC(C)=O)C(C)C)C(=O)N[C@@H](CCC(N)=O)C(=O)N[C@@H](CC(C)C)C(=O)N[C@@H](CCSC)C(=O)N[C@@H](Cc1cnc[nH]1)C(=O)N[C@@H](C)C(=O)N[C@@H](CC(C)C)C(=O)NCC(=O)N[C@@H](CCCCN)C(=O)N[C@@H](Cc1cnc[nH]1)C(=O)N[C@@H](CC(C)C)C(=O)N[C@@H](CC(N)=O)C(=O)N[C@@H](CO)C(=O)N[C@@H](CCSC)C(=O)N[C@@H](CCC(=O)O)C(=O)N[C@@H](CCCNC(=N)N)C(=O)N[C@H](C(=O)N[C@@H](CCC(=O)O)C(=O)N[C@@H](Cc1c[nH]c2ccccc12)C(=O)N[C@@H](CC(C)C)C(=O)N[C@@H](CCCNC(=N)N)C(=O)N[C@@H](CCCCN)C(=O)N[C@@H](CCCCN)C(=O)N[C@@H](CC(C)C)C(=O)N[C@@H](CCC(N)=O)C(=O)N[C@@H](CC(=O)O)C(=O)N[C@H](C(=O)N[C@@H](Cc1cnc[nH]1)C(=O)N[C@@H](CC(N)=O)C(=O)N[C@@H](Cc1ccccc1)C(N)=O)C(C)C)C(C)C | Non-Toxic
6 | CC[C@H](C)[C@H](NC(=O)[C@H](CCC(=O)O)NC(=O)[C@H](CO)NC(=O)[C@@H](NC(=O)[C@H](CO)NC(C)=O)C(C)C)C(=O)N[C@@H](CCC(N)=O)C(=O)N[C@@H](CC(C)C)C(=O)N[C@@H](CCSC)C(=O)N[C@@H](Cc1cnc[nH]1)C(=O)N[C@@H](CC(N)=O)C(=O)N[C@@H](CC(C)C)C(=O)NCC(=O)N[C@@H](CCCCN)C(=O)N[C@@H](Cc1cnc[nH]1)C(=O)N[C@@H](CC(C)C)C(=O)N[C@@H](CC(N)=O)C(=O)N[C@@H](CO)C(=O)N[C@@H](CCSC)C(=O)N[C@@H](CCC(=O)O)C(=O)N[C@@H](CCCNC(=N)N)C(=O)N[C@H](C(=O)N[C@@H](CCC(=O)O)C(=O)N[C@@H](Cc1c[nH]c2ccccc12)C(=O)N[C@@H](C)C(=O)N[C@@H](CCCNC(=N)N)C(=O)N[C@@H](CCCCN)C(=O)N[C@@H](CCCCN)C(=O)N[C@@H](CC(C)C)C(=O)N[C@@H](CCC(N)=O)C(=O)N[C@@H](CC(=O)O)C(=O)N[C@H](C(=O)N[C@@H](Cc1cnc[nH]1)C(=O)N[C@@H](CC(N)=O)C(=O)N[C@@H](Cc1ccccc1)C(N)=O)C(C)C)C(C)C | Non-Toxic
7 | CC[C@H](C)[C@H](NC(=O)[C@H](CCC(=O)O)NC(=O)[C@H](CO)NC(=O)[C@@H](NC(=O)[C@H](CO)NC(C)=O)C(C)C)C(=O)N[C@@H](CCC(N)=O)C(=O)N[C@@H](CC(C)C)C(=O)N[C@@H](CCSC)C(=O)N[C@@H](Cc1cnc[nH]1)C(=O)N[C@@H](CC(N)=O)C(=O)N[C@@H](CC(C)C)C(=O)NCC(=O)N[C@@H](CCCCN)C(=O)N[C@@H](Cc1cnc[nH]1)C(=O)N[C@@H](CC(C)C)C(=O)N[C@@H](CC(N)=O)C(=O)N[C@@H](CO)C(=O)N[C@@H](CCSC)C(=O)N[C@@H](CCC(=O)O)C(=O)N[C@@H](CCCNC(=N)N)C(=O)N[C@@H](C)C(=O)N[C@@H](CCC(=O)O)C(=O)N[C@@H](Cc1c[nH]c2ccccc12)C(=O)N[C@@H](CC(C)C)C(=O)N[C@@H](CCCNC(=N)N)C(=O)N[C@@H](CCCCN)C(=O)N[C@@H](CCCCN)C(=O)N[C@@H](CC(C)C)C(=O)N[C@@H](CCC(N)=O)C(=O)N[C@@H](CC(=O)O)C(=O)N[C@H](C(=O)N[C@@H](Cc1cnc[nH]1)C(=O)N[C@@H](CC(N)=O)C(=O)N[C@@H](Cc1ccccc1)C(N)=O)C(C)C | Non-Toxic
8 | CC[C@H](C)[C@H](NC(=O)[C@H](CCC(=O)O)NC(=O)[C@H](CO)NC(=O)[C@@H](NC(=O)[C@H](CO)NC(C)=O)C(C)C)C(=O)N[C@@H](CCC(N)=O)C(=O)N[C@@H](CC(C)C)C(=O)N[C@@H](CCSC)C(=O)N[C@@H](Cc1cnc[nH]1)C(=O)N[C@@H](CC(N)=O)C(=O)N[C@@H](CC(C)C)C(=O)NCC(=O)N[C@@H](CCCCN)C(=O)N[C@@H](Cc1cnc[nH]1)C(=O)N[C@@H](CC(C)C)C(=O)N[C@@H](CC(N)=O)C(=O)N[C@@H](CO)C(=O)N[C@@H](CCSC)C(=O)N[C@@H](CCC(=O)O)C(=O)N[C@@H](CCCNC(=N)N)C(=O)N[C@H](C(=O)N[C@@H](CCC(=O)O)C(=O)N[C@@H](Cc1c[nH]c2ccccc12)C(=O)N[C@@H](CC(C)C)C(=O)N[C@@H](C)C(=O)N[C@@H](CCCCN)C(=O)N[C@@H](CCCCN)C(=O)N[C@@H](CC(C)C)C(=O)N[C@@H](CCC(N)=O)C(=O)N[C@@H](CC(=O)O)C(=O)N[C@H](C(=O)N[C@@H](Cc1cnc[nH]1)C(=O)N[C@@H](CC(N)=O)C(=O)N[C@@H](Cc1ccccc1)C(N)=O)C(C)C)C(C)C | Non-Toxic
9 | CC[C@H](C)[C@H](NC(=O)[C@H](CCC(=O)O)NC(=O)[C@H](CO)NC(=O)[C@@H](NC(=O)[C@H](CO)NC(C)=O)C(C)C)C(=O)N[C@@H](CCC(N)=O)C(=O)N[C@@H](CC(C)C)C(=O)N[C@@H](CCSC)C(=O)N[C@@H](Cc1cnc[nH]1)C(=O)N[C@@H](CC(N)=O)C(=O)N[C@@H](CC(C)C)C(=O)NCC(=O)N[C@@H](CCCCN)C(=O)N[C@@H](Cc1cnc[nH]1)C(=O)N[C@@H](C)C(=O)N[C@@H](CC(N)=O)C(=O)N[C@@H](CO)C(=O)N[C@@H](CCSC)C(=O)N[C@@H](CCC(=O)O)C(=O)N[C@@H](CCCNC(=N)N)C(=O)N[C@H](C(=O)N[C@@H](CCC(=O)O)C(=O)N[C@@H](Cc1c[nH]c2ccccc12)C(=O)N[C@@H](CC(C)C)C(=O)N[C@@H](CCCNC(=N)N)C(=O)N[C@@H](CCCCN)C(=O)N[C@@H](CCCCN)C(=O)N[C@@H](CC(C)C)C(=O)N[C@@H](CCC(N)=O)C(=O)N[C@@H](CC(=O)O)C(=O)N[C@H](C(=O)N[C@@H](Cc1cnc[nH]1)C(=O)N[C@@H](CC(N)=O)C(=O)N[C@@H](Cc1ccccc1)C(N)=O)C(C)C)C(C)C | Non-Toxic
